The values below come from patent publication US20210127671A1, “HYPERSENSITIVE RESPONSE ELICITOR PEPTIDES AND USE THEREOF” (priority 2015, published 2021).

For series [1] the following is noted: 0.2% AI in deionized water, 48 hours at room temperature.
Series [2] is described as follows: Stability against chemical degradation in water or pH buffers at 50° C. (HPLC). Conditions: for precipitation during stability test: 0.2% AI, 0.25% Proxel GXL, 50 mM buffers, 50° C. As for the experimental part: Briefly, the stability and resistance to chemical degradation of peptides can be assessed as follows using peptide samples having an initial purity of at least about 80%, at least about 82%, at least about 84%, at least about 86%, at least about 88%, at least about 90%, at least about 92%, at least about 94%, at least about 96%, or at least about 98%. For water stability, the peptide is dissolved directly in de-ionized water. For chemical degradation tests, the peptide is dissolved in an aqueous solution containing 50 mM pH buffer and 0.25% Proxel GXL. Exemplary pH buffers include, without limitation: (i) Citrate pH 5.6; (ii) MES pH 6.2; (iii) MOPS pH 6.5; (iv) imidazole pH 7.0; (v) Citrate pH 7.2; (vi) EDDS, pH 7.3; (vii) EDTA pH 8.0; (viii) sodium phosphate pH 8.0; or (ix) TES pH 8.0. Peptides are first dissolved in the aqueous solution at a concentration of 0.5 mg/ml. […] An initial sample of the peptide is removed, diluted 10× with water, and analyzed by reverse-phase HPLC. Briefly, 20 μl of the sample is injected into the solvent flow of an HPLC instrument and analyzed on a C18 HPLC column (YMC ProPack C18, YMC, Japan, or C18 Stablebond, Agilent Technologies, USA) using either a triethylamine phosphate in water/acetonitrile gradient or a 0.1% TFA in water/0.1% TFA in acetonitrile gradient to separate different peptide species. Eluting peptides are monitored by UV absorbance at 218 nm and quantified based on the area under the peak. The area under the peak for the initial peptide sample is treated as the standard for relative quantification in subsequent runs. At regular intervals (e.g., 1, 3, 7, 10, 14, 17, and 21 days), each peptide sample is surveyed and analyzed by HPLC as described above.
Stability against chemical degradation was assessed in various pH buffers by creating 0.2% AI solutions of pure, chemically synthesized peptide in deionized water, 0.25% weight to volume of Proxel® GXL (biocide), and 50 millimolar (mM) of eight buffers (separately) as follows: MES pH 5.6, MOPS pH 6.5, Citrate pH 7.2, EDDS pH 7.3, EDTA pH 8, Phosphate pH 8, Imidazole pH 8, and TES pH 8.

The conditions of series [3]: 50° C., 50 mM TES, pH 8.0 and 30% isopropanol.
For series [4] the following is noted: pH 8.
Experiment in series [5]: not given
This is another data set of the same source.

A further series has as its system Soy. Kind of series: Growth test, foliar spray, soy. Format: in vivo. On the procedure:
For growth tests, corn and soy seeds were planted in flats with 2 seeds per cell within the flat at a greenhouse facility. The seeds were allowed to germinate and the smaller plant is culled, leaving one plant per cell. Once the first true leaves are fully expanded and the second leaves are beginning to expand, the plants were initially measured for height. This was performed by stretching the highest leaf upward and measuring the distance to the soil. Peptides were dissolved in water at the indicated concentrations (below). The plants were then treated with a foliar spray using widely available spray bottles until liquid was dripping from the leaves. 4 flats of 14 plants each were treated per condition (peptide or control). Corn and soy were treated as indicated in Table 13 and compared with matched water-treated control plants. The plants were allowed to grow for 14 days. The height of the plants was again measured and compared to the original height to quantify growth. In some cases, the plants were allowed to grow without watering for 2-4 days until the onset of wilting and drought stress. At this time, the above-ground portions of the plants were harvested and weighed to determine the fresh mass. […] Growth, dry biomass, and fresh mass are calculated as the % increase over the water-treated control.

Where two headings read alike, the source gives them in different places. Peptide text beside a SMILES is read from it. Bounds are passed on as bounds.

The term solubility denotes the dissolved amount per volume that the medium holds. Read a low solubility as a poorly soluble substance. Turning to `CC[C@H](C)[C@H](NC(=O)CNC(=O)[C@H](CCC(N)=O)NC(=O)[C@@H](N)CC(N)=O)C(=O)N[C@@H](CO)C(=O)N[C@@H](CCC(=O)O)C(=O)N[C@@H](CCCCN)C(=O)N[C@@H](CCC(N)=O)C(=O)N[C@@H](CC(C)C)C(=O)N[C@@H](CC(=O)O)C(=O)N[C@@H](CCC(N)=O)C(=O)N[C@@H](CC(C)C)C(=O)N[C@@H](CC(C)C)C(=O)N[C@H](C(=O)N[C@@H](CCC(N)=O)C(=O)N[C@@H](CC(C)C)C(=O)N[C@H](C(=O)N[C@@H](CCSC)C(=O)N[C@@H](C)C(=O)N[C@@H](CC(C)C)C(=O)N[C@@H](CC(C)C)C(=O)N[C@@H](CCC(N)=O)C(=O)N[C@@H](CCC(N)=O)C(=O)O)[C@@H](C)CC)[C@@H](C)O` [Peptide P1] (H-NQGISEKQLDQLLTQLIMALLQQ-OH; N-terminus and C-terminus assumed), the solubility was below 1000 µg/mL. The solubility result in series [1] is “largely insoluble in water”. Further, the “% of the material remaining after 7 days” value in series [2] (50 mM EDDS, pH 7.3) stood at 10%. For the same compound, in series [2] (50 mM MES pH 6.0, 50° C.), the “better stability than the mutants after 14 days” value is given as 10-30%. In series [2] (50 mM TES, pH 8.0, 80° C. as printed), the “% degraded after 1 week of incubation” value is “more than 90%”. For the same compound, the “precipitation during stability test” value in series [2] is on record as “Precipitation of P1 was observed after several days”. In series [2] (dissolved in water, FIG. 1), the “stability (in words)” value is “modestly stable”. Moreover, the solubility behaviour entry in series [2] (lower pH: deionized water, 50 mM citrate pH 5.6, 50 mM MES pH 6.0) is reported as “solubility problems”. Further, in series [2] (phosphate, pH 8.0), the “solubility (in words)” value was “some cloudiness in solution” and the “stability (in words)” value is listed as “appears to outperform the stability of the mutants”.
Regarding `CC[C@H](C)[C@H](NC(=O)CNC(=O)[C@H](CCC(N)=O)NC(=O)[C@@H](N)CO)C(=O)N[C@@H](CO)C(=O)N[C@@H](CCC(=O)O)C(=O)N[C@@H](CCCCN)C(=O)N[C@@H](CCC(N)=O)C(=O)N[C@@H](CC(C)C)C(=O)N[C@@H](CC(=O)O)C(=O)N[C@@H](CCC(N)=O)C(=O)N[C@@H](CC(C)C)C(=O)N[C@@H](CC(C)C)C(=O)N[C@@H](CS)C(=O)N[C@@H](CCC(N)=O)C(=O)N[C@@H](CC(C)C)C(=O)N[C@H](C(=O)N[C@@H](CCC(N)=O)C(=O)N[C@@H](C)C(=O)N[C@@H](CC(C)C)C(=O)N[C@@H](CC(C)C)C(=O)N[C@@H](CCC(N)=O)C(=O)N1CCC[C@H]1C(=O)O)[C@@H](C)CC` [Peptide P4] (H-SQGISEKQLDQLLCQLIQALLQP-OH; N-terminus and C-terminus assumed), the solubility was at least 100000 µg/mL. Further, in series [1], the solubility result is on record as “completely soluble”. Besides, the “precipitation during stability test” value in series [2] is “remained in solution”. The “solution stability (in words)” value in series [2] (aqueous solution) is “very poor stability”.
Regarding `CSCC[C@H](NC(=O)[C@H](CC(C)C)NC(=O)[C@H](C)NC(=O)[C@H](CCC(N)=O)NC(=O)[C@H](CCSC)NC(=O)[C@@H]1CCCN1C(=O)[C@H](CC(=O)O)NC(=O)[C@@H](N)CCC(N)=O)C(=O)N[C@@H](CCC(N)=O)C(=O)N[C@@H](CC(C)C)C(=O)N[C@@H](CC(C)C)C(=O)N[C@@H](CCC(=O)O)C(=O)N[C@@H](CC(=O)O)C(=O)N[C@@H](CC(C)C)C(=O)N[C@H](C(=O)N[C@@H](CCCCN)C(=O)N[C@@H](CC(C)C)C(=O)N[C@@H](CC(C)C)C(=O)N[C@@H](CCCCN)C(=O)O)C(C)C` [Peptide P14d] (H-QDPMQALMQLLEDLVKLLK-OH; N-terminus and C-terminus assumed), the “chemical stability for >50 days” value in series [3] is reported as “around 50%”.
For the compound `CC[C@H](C)[C@H](NC(=O)[C@H](CCC(=O)O)NC(=O)[C@H](CCC(=O)O)NC(=O)[C@H](CCC(=O)O)NC(=O)[C@H](CCC(=O)O)NC(=O)[C@H](CCC(=O)O)NC(=O)[C@@H](N)CO)C(=O)N[C@@H](C)C(=O)N[C@@H](CCCCN)C(=O)N[C@@H](CC(C)C)C(=O)N[C@H](C(=O)N[C@@H](CO)C(=O)N[C@@H](C)C(=O)N[C@@H](CC(C)C)C(=O)N[C@H](C(=O)N[C@@H](CCC(=O)O)C(=O)N[C@@H](CO)C(=O)N[C@@H](CC(C)C)C(=O)N[C@@H](CC(C)C)C(=O)N[C@@H](CCC(=O)O)C(=O)O)[C@@H](C)CC)[C@@H](C)CC` [Peptide P15-59] (H-SEEEEEIAKLISALIESLLE-OH; N-terminus and C-terminus assumed), the solubility in series [4] was above 10000 µg/mL.
Compound `CC[C@H](C)[C@H](NC(=O)[C@H](CC(N)=O)NC(=O)[C@H](CO)NC(=O)[C@H](CCC(N)=O)NC(=O)[C@H](CO)NC(=O)[C@H](CC(=O)O)NC(=O)[C@H](CC(N)=O)NC(=O)[C@@H]1CCCN1C(=O)[C@H](CCCCN)NC(=O)[C@H](CO)NC(=O)[C@H](C)NC(=O)[C@H](CC(=O)O)NC(=O)[C@H](CCC(N)=O)NC(=O)[C@@H]1CCCN1C(=O)[C@H](CC(N)=O)NC(=O)[C@H](CCC(N)=O)NC(=O)[C@@H](NC(=O)[C@@H](NC(=O)[C@H](CO)NC(=O)[C@H](CC(=O)O)NC(=O)[C@@H]1CCCN1C(=O)[C@@H](NC(=O)CNC(=O)[C@H](Cc1ccccc1)NC(=O)[C@@H](N)CC(N)=O)[C@@H](C)O)[C@@H](C)O)C(C)C)C(=O)N[C@@H](C)C(=O)N[C@@H](CCCCN)C(=O)N[C@@H](CC(C)C)C(=O)N[C@H](C(=O)N[C@@H](CO)C(=O)N[C@@H](C)C(=O)N[C@@H](CC(C)C)C(=O)N[C@H](C(=O)N[C@@H](CCSC)C(=O)N[C@@H](CO)C(=O)N[C@@H](CC(C)C)C(=O)N[C@@H](CC(C)C)C(=O)N[C@@H](CCC(N)=O)C(=O)N[C@@H](CCSC)C(=O)O)[C@@H](C)CC)[C@@H](C)CC` [Peptide P15a] (H-NFGTPDSTVQNPQDASKPNDSQSNIAKLISALIMSLLQM-OH; N-terminus and C-terminus assumed) came in with a solubility in series [4] above 10000 µg/mL.
Consider `CC[C@H](C)[C@H](NC(=O)[C@H](CC(N)=O)NC(=O)[C@H](CO)NC(=O)[C@H](CCC(N)=O)NC(=O)[C@H](CO)NC(=O)[C@H](CC(=O)O)NC(=O)[C@H](CC(N)=O)NC(=O)[C@@H]1CCCN1C(=O)[C@@H](N)CCCCN)C(=O)N[C@@H](C)C(=O)N[C@@H](CCCCN)C(=O)N[C@@H](CC(C)C)C(=O)N[C@H](C(=O)N[C@@H](CO)C(=O)N[C@@H](C)C(=O)N[C@@H](CC(C)C)C(=O)N[C@H](C(=O)N[C@@H](CCSC)C(=O)N[C@@H](CO)C(=O)N[C@@H](CC(C)C)C(=O)N[C@@H](CC(C)C)C(=O)N[C@@H](CCC(N)=O)C(=O)O)[C@@H](C)CC)[C@@H](C)CC` [Peptide P15b] (H-KPNDSQSNIAKLISALIMSLLQ-OH; N-terminus and C-terminus assumed), for which the “solubility at 0.2% w/v” value in series [5] (50 mM MES pH 6.0, and MOPS pH 6.5) was “at least partially soluble”; in series [5] (50 mM of each of citrate pH ~5.2, citrate pH 7.0, phosphate pH 7.0, TES pH 8.0, EDTA pH 8.0, EDDS pH 7.0) it was “insoluble”; in series [5] (water), “partially soluble”.
As to “SEGISEKQLDQLLSQLIEALLQP [Peptide P4-14S-18E]”, the “Growth (% difference)” value in the series on Soy (Rate 2.0, 14 days, % increase over water-treated control) is reported as 9.0 % difference. In addition, in the series with Soy (Rate 2.0, % increase over water-treated control), the “Dry biomass (% difference)” value was 0.8 % difference.
